Assays:
[1] = test system: patient with reduced renal function; assay: creatinine clearance (renal function) in a patient with autoimmune disease; type: in vivo, human
Text: Patients with autoimmune disease often suffer significant inflammation of the kidneys, often causing renal dysfunction and/or destruction, which can lead to death in the absence of dialysis. A clinical laboratory measure of kidney function is creatinine clearance. Creatinine is the metabolic product formed from creatine when food is converted to energy. Creatinine is produced at a steady state and is affected very little by diet or normal physical activities. When a subject's kidneys are damaged and/or cannot function normally, the amount of creatinine excreted in the subject's urine decreases while its level in the blood increases. Thus, the blood level of creatinine indicates how well the kidneys are working. A high level generally means the kidneys are not functioning properly. A creatinine clearance test is performed both on a blood sample taken from the subject's vein and on a sample of urine collected over 24 hours. […] A normal creatinine level is less than 1, and normal CrCl levels are typically >100 mL/min. Dialysis is usually required when CrCl levels fall below about 20 mL/min.

[2] = test system: herpes-infected patient with kyphosis; assay: kyphosis; type: in vivo, human; settings: 300 mg/kg per day
Protocol: Another condition observed in a herpes-infected patient was kyphosis or abnormal curvature of the upper spine. Generally, kyphosis is thought to result from habitual poor posture. However, kyphosis is sometimes caused by abnormal contraction of some spinal muscles. When the patient received 300 mg/kg of famciclovir per day, their posture improved as the contracted spinal muscles relaxed.

[3] = test system: patient with aseptic meningitis; assay: treatment of aseptic meningioencephalitis / aseptic meningitis; type: in vivo, human
Text: The inventor thought that the cause of the AME was the patient's herpes infection that had spread internally to the brain and meninges. […] Because the product inserts for the anti-viral products on the market ([…]®) all warned against using increased doses of the product because of the fear of further renal damage, there was reason not to use increased doses beyond those of '114. […] A patient weighing about 100 kg having multiple signs or symptoms of autoimmune disease had been ingesting famciclovir for several years at about 10 g per day taken 4 times daily during a 24 hour period. While the subject's condition was tolerable, they were in a regular state of pain in the joints and had other signs or symptoms discussed below. They experienced significant headache pain, which was diagnosed as aseptic meningitis, which was discovered to be treatable initially using 340 mg of famciclovir per kg body weight. […] The inflammation and pain are therefore thought to be caused by the immune attack on the infected tissues. Within hours of taking the high doses of famciclovir, the patient experienced at least 60% relief of the extremely painful and debilitating symptoms of meningitis. […] The Shalabi, et al. report is discouraging. According to the authors, the disease is self-resolving. Without a double-blind study, it was not possible to detect the contribution of acyclovir to the recovery.

[4] = body pH of 7.4; cited from earlier work
[5] = test system: patient with muscle spasms, pain and inability to sleep; assay: muscle spasms, pain, sleep and restless leg; type: in vivo, human; settings: 300 mg/kg per day
Protocol: Severe sleep disturbance can be caused by inability to relax the axial muscles due to hypertonus. It is not appreciated by those without hypertonus of the muscles, but it is necessary for the somatic muscles to relax to a predetermined level, before sleep will commence. Hypertonus can prevent that relaxation and prevent sleep. One patient was unable to achieve normal REM sleep for over 15 years, when their autoimmune disease was treated with the current treatments, which are essentially ineffective. However, this same patient was restored to essentially […] on the doses of this invention. Additionally this patient suffered from severe “restless leg syndrome” which is caused by the same disease conditions of the sympathetic chain as causes all above. […] At the levels of '114 these benefits were only slightly apparent, with the doses of this application normal REM sleep is restored. And, if the drug levels of the 2-aminopurines are allowed to drop for only a few hours the inability to sleep, and the severe restless leg return to the afflicted. […] The relationship of the appearance or suppression of the signs or symptoms of sleep disturbance to the onboard drug level is consistent and dramatic. […] The patient was administered 300 mg/kg of famciclovir per day and experienced relief of 90% of the spasms and pain. […]

[6] = test system: patient with irritable bowel syndrome; assay: irritable bowel syndrome signs or symptoms; type: in vivo, human
Text: This example sets forth the treatment of a patient with signs or symptoms of disease associated with reduced blood flow to an organ or tissue (correlated with hypertonicity of the associated blood vessels) using high doses of famciclovir, a compound of Formula (II) where B is H and each of R1 and R2 is CH3C(O)—, at a level and under conditions as explained below.
A patient weighing about 100 kg having multiple signs or symptoms of autoimmune disease had been ingesting famciclovir for several years at about 10 g per day taken 4 times daily during a 24 hour period. While the subject's condition was tolerable, they were in a regular state of pain in the joints and had other signs or symptoms discussed below.
The patient also presented with irritable bowel syndrome (IBS) signs or symptoms, such as severe distention, cramps and pain spasms. After increasing intake of famciclovir to a maintenance level of 300 mg/kg per day, the patient experienced a dramatic improvement. […] The distended waist circumference was reduced from 44 inches to 38 inches over a period of days, and pain was about 90% relieved. Since the patient experienced no weight loss, the reduction in distention was due to the relief of bowel spasms.

[7] = test system: patient with urination problems; assay: urination problems (benign prostate hypertrophy symptoms); type: in vivo, human; settings: 300 mg/kg per day, taken in 6 hour increments
Protocol: The same high doses of famciclovir also relieved urination problems in a patient, such as hesitancy, weak stream and retention. These signs or symptoms are usually associated with benign prostate hypertrophy. However, without taking any prostate-specific drugs, but famciclovir alone, the patient achieved substantial relief of these symptoms. The signs or symptoms disappeared or were at least 90% relieved at 300 mg/kg of famciclovir per day, taken in 6 hour increments. The symptoms returned in about 10 hours when the drug was taken every 10 hours instead of every six hours. When the drug was taken every 6 hours, the symptoms, once again, disappeared.

[8] = test system: patient with fibromyalgia; assay: fibromyalgia pain; type: in vivo, human; settings: 300 mg/kg per day
Protocol: Yet another effect was alleviation of fibromyalgia: The pain was reduced by about 95% at 300 mg/kg of famciclovir per day.

Structure (SMILES): CC(=O)OCC(CCn1cnc2cnc(N)nc21)COC(C)=O [famciclovir, 2-amino-9-(4-acetoxy-3-acetoxymethylbut-1-yl)purine]
- creatinine clearance level ([1]; dose increased from '114 level to levels of this application, from 89 mL/min, 100 kg man): 143 mL/min
- impaired kidney function ([1]; more than 250 mg/kg of body weight per day): significant improvement
- posture in kyphosis [2]: improved
- unremitting severe symptoms of aseptic meningitis ([3]; 340 mg/kg per day, maintained at 300 mg/kg/day): quickly dispersed
- relief of symptoms of meningitis ([3]; 340 mg/kg, within hours of taking): at least 60%
- treating the AME ([3]; maximum dose of 120 mg/kg body weight as taught in '114): ineffective
- acute pain and the AME ([3]; more than 250, e.g. 340 to 400 mg/kg/day): completely stopped
- water solubility compared with other representative compounds such as acyclovir [4]: more water soluble
- relief of the spasms and pain [5]: 90%
- severe bowel and back pain and spasms relieved [5]: about 80%
- IBS pain relieved ([6]; 300 mg/kg per day): about 90%
- distended waist circumference ([6]; 300 mg/kg per day, over a period of days, reduced from 44 inches): 38 inches
- IBS pain spasms ([6]; maintenance level of 300 mg/kg per day): dramatically decreased
- urination signs or symptoms (hesitancy, weak stream, retention) relieved [7]: at least 90%
- fibromyalgia pain reduced [8]: about 95%
